Data set [1] deals with PI3K. Nature of the data set: Western blot of Akt phosphorylation in TGFβ1-stimulated HLF cells. The class given is cell-based, human. More on the design: inhibition of Akt phosphorylation on serine 473: dose or concentration left out as unconfirmed. The method, then: (§1) Lysates were collected and analyzed for the indicated proteins by Western blotting, wherein pAkt (S473) is phosphorylated protein kinase B, Akt is protein kinase B, Col.1 is collagen 1, αSMA is α-smooth muscle actin, pSMAD2 is phosphor-SMAD2 kinase, SMAD2 is mothers against decapentaplegic homolog 2, and GAPDH is glyceraldehyde 3-phosphate dehydrogenase.
(§2) To determine whether the nontargeted version of PI3Ki1 might enter human lung fibroblasts and inhibit PI3K activity, HLF-FAP cells were incubated for 24 h with either omipalisib or PI3Ki1 and then the impact on TGFβ1 stimulation, including phosphorylation of Akt, collagen synthesis, contraction of a collagen gel, and apoptosis of myofibroblasts were examined. […] Moreover, nontargeted PI3Ki1suppressed collagen synthesis with better potency than omipalisib, displaying an IC50˜10 nM (FIG. 4C).
(§3) Serum starved confluent HLF cells were co-incubated in medium containing 10 ng/ml TGFβ1 with or without the indicated concentrations of PI3K inhibitors for 24 hours. Cells were harvested and lysed for Western blot analysis. Following sodium dodecyl sulphate polyacrylamide gel electrophoresis and blocking, membranes were incubated with antibodies to detect pSMAD2 Ser465/467 (#3101, Cell Signalling Technology), or pAkt Ser473 (#4060, Cell signalling Technology), and signals were visualized with ECL Western Blot Detection Reagents (GE Healthcare). […]
In general terms: A western blot detects proteins with antibodies after separation by electrophoresis.

The subject of data set [2] is TGFβ1-stimulated HLF cells. Kind of data set: Collagen synthesis (Col.1/GAPDH) in TGFβ1-stimulated HLF cells. The class given is cell-based. The note with it: Homo sapiens, TGFβ1 10 ng/mL, 24 h, read-out: IC50 of suppression of collagen synthesis. The method, then:
as §1, §2, §3

A further data set has as its system HLF. Nature of the data set: HLF contraction of a collagen gel. The class given is cell-based, human. The following applies: 100 nM. The method, then:
Data were analyzed using one-way ANOVA, followed by post-hoc Tukey test (n=3; *p<0.01).
as §2

In the next data set the test system is HLF cells. Nature of the data set: Caspase 3 and 7 activities in HLF cells (drug-induced apoptosis). The class given is cell-based. The method, then:
The experiments in panels A-E have been reproduced three times, each with three independent samples, n=3).
as §2

For data set [3], the system named is PI3K. Nature of the data set: Western blot of Akt phosphorylation in TGFβ1-stimulated human IPF fibroblasts. It counts as cell-based. The note with it: 3, 9, 27 or 81 min incubation. Here is the method: After replacing the medium with inhibitor-free medium, the cells were cultured for an additional 22 hours, lysed with phosphatase inhibitor containing cell lysis solution, and analyzed for the indicated proteins by Western blotting (n=3).
After an additional 24-hour incubation, cells were lysed and the indicated proteins were analyzed by Western blotting (n=3).
Random/zed shRNA (shCTL) served as a control (n=2).
FIGS. 8A-8B are representative Western blots showing that FAP-targeted PI-3 Kinase inhibitor (FAPL-PI3Ki1) suppresses phosphorylation of Akt in IPF fibroblasts.
Firstly, primary lung fibroblasts from an IPF patient were stimulated for 24 h with TGFβ1 (to activate them to a FAP-expressing state) and then incubated for 2 h with increasing concentrations of FAPL-PI3Ki1, in the presence or absence of 100-fold excess FAPL to block unoccupied FAP sites.
Secondly, IPF lung fibroblasts were stimulated with TGFβ1 and then incubated for different durations with either FAPL-targeted or nontargeted PI3Ki1, followed by replacement of the culture media with inhibitor-free media (FIG. 7B and FIGS. 8A-8B). The anticipation was that FAP-targeted PI3Ki1 would be retained by FAP on FAP-expressing cells during short incubation times, whereas nontargeted PI3Ki1would not be captured by FAP and would subsequently be washed away when the media was changed. […]

The test system of a further data set is IPF fibroblasts. Kind of data set: Molecular crowding assay for collagen in IPF fibroblasts. It counts as cell-based, human. The following applies: 100 nM, 2 h, then inhibitor-free media with TGFβ1. Here is the method:
FIG. 7E and FIG. 7F show assay of collagen biosynthesis (green channel) using a molecular crowding assay (0.1% DMSO vehicle was constant for all experimental conditions). IPF fibroblasts were treated with 100 nM omipalisib, PI3Ki1 or FAPL-PI3Ki1for 2 hours, after which the media were removed and the fibroblasts were further stimulated for 48 h with media containing TGFβ1 (10 ng/mL). Cell counts were obtained from DAPI counterstaining (blue channel). Data were analyzed using one-way ANOVA, followed by post-hoc Tukey test (n=3; *p.-(0.05).
Next, the FAP-targeted PI-3 kinase inhibitors were tested to determine if they might suppress collagen formation by human IPF fibroblasts. For this purpose, TGFβ1-stimulated IPF lung fibroblasts were stimulated for 2 h with omipalisib, PI3Ki1, or FAPL-PI3Ki1, followed by replacement of the inhibitor-containing media with inhibitor-free growth media and continued incubation for 46 h. […] Importantly, this concurrent suppression of both mTOR and PI3K activity should be very beneficial to the desired therapy, since collagen synthesis associated with pathogenic fibrosis can be induced by both pathways.
Confluent IPF fibroblasts (4000 cells/well) were cultured in 96-well plates in DMEM containing 0.4% fetal calf serum, ascorbic acid (100 μM), and mixed Ficoll 70 and Ficoll 400 as molecular crowding agents. […]

Structures are written as SMILES.

In the case of `COc1ncc(-c2ccc3nccc(-c4ccc(CO)nc4)c3c2)cc1NS(=O)(=O)c1ccc(F)cc1F` [PI3Ki1], the “inhibition of Akt phosphorylation on serine 473” value in the data set with PI3K [1] is “nearly complete inhibition”. In addition, the IC50 (usually the concentration needed to halve the response being measured) was ~1 nM in the data set on PI3K [1] (Homo sapiens, HLF, TGFβ1 10 ng/mL, 24 h, read-out: IC50 of inhibition of phosphorylation of Akt) and ~10 nM in data set [2]. Further, in the data set with HLF, the “inhibition of TGFβ1 stimulated fibroblast contraction of a collagen gel” value is reported as “reduce TGFβ1 induced collagen remodeling”. Further, in the data set with HLF cells (concentrations below 100 nM), the caspase activity result is given as “weak induction of caspase activity”. In the data set on HLF cells (increasing concentrations), the “fibroblast apoptosis (caspase 3 and 7 activation)” value is “only promoted fibroblast cell death at concentrations much higher than those required to prevent collagen synthesis”. Moreover, the “pAkt after short incubation and replacement with inhibitor-free media” value in the data set on PI3K [3] is recorded as “no diminution in pAkt expression”. Further, the biosynthesis of collagen entry in the data set with IPF fibroblasts is “only moderately inhibited”.

For the molecule `COc1ncc(-c2ccc3nccc(-c4ccnnc4)c3c2)cc1NS(=O)(=O)c1ccc(F)cc1F` [omipalisib, reference compound], the biosynthesis of collagen result in the data set on IPF fibroblasts was “only moderately inhibited”.

The values are drawn from US20230158153A1, “PI3 KINASE INHIBITORS AND USES THEREOF” (Purdue Research Foundation, priority 2020, published 2023).
